Assay in all cases: NCI tumour cell line growth inhibition, 48 h
In test [1] the test system is SF-295.
Test [2] relates to SK-MEL-28.
Test [3] relates to NCI-H460.
Test [4] relates to COLO 205.
For test [5], the system named is SK-MEL-5.
Test [6] deals with KM12.
Test [7] deals with OVCAR-8.
In test [8] the test system is K562.
Test [9] relates to HOP-92.
The test system of test [10] is U-251.
Test [11] relates to CCRF-CEM.
Test [12] deals with SNB-19.
Test [13] relates to HT-29.
Test [14] has as its system SK-OV-3.
The test system of test [15] is OVCAR-5.
Test [16] has as its system HOP-62.
The subject of test [17] is SK-MEL-2.
Test [18] has as its system UACC-62.
For test [19], the system named is IGROV-1.
Test [20] deals with HL-60.

Each structure is given as a SMILES string.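 Results reflect a 48-hour exposure of cells in 96-well plates to compound at five concentrations. At the GI50, growth is halved.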 Active and inactive are the calls of the source. No stated cut-off is given here; in the data, active = GI50 up to about 1.1 µM and inactive = higher.

With `Cc1ccc(S(=O)(=O)NCCSS(=O)(=O)c2ccc(C)cc2)cc1`, the GI50 was 35.6 µM (inactive) in test [1]; 31.7 µM (inactive) in test [2]; 35.4 µM (inactive) in test [3]; 56 µM (inactive) in test [4]; 20.7 µM (inactive) in test [5]; 28.1 µM (inactive) in test [6]. The GI50 in test [7] was 37.9 µM (inactive); in [8], 30.7 µM (inactive); in test [9] it was > 100 µM (inactive); in [10], 25.5 µM (inactive); in [11], 24.3 µM (inactive); in test [12], 72.9 µM (inactive). Further, the results for the GI50 in test [13] and in [14] were 22.6 µM (inactive) and > 100 µM (inactive), respectively.

Regarding `O=c1c(-c2ccccc2)c(SCCN2CCOCC2)n(-c2ccccc2)c(=S)n1-c1ccccc1`, the GI50 was 83.6 µM (inactive) in [1]; > 100 µM (inactive) in [15]; > 100 µM (inactive) in test [2]; 74 µM (inactive) in [16]; > 100 µM (inactive) in test [3]; > 100 µM (inactive) in [4]. Further, the GI50 in test [5] was > 100 µM (inactive); in [6] it was > 100 µM (inactive); in test [7], 63 µM (inactive); in test [8], > 100 µM (inactive); in [9], 25.2 µM (inactive); in test [10], > 100 µM (inactive). In addition, the GI50 in test [11] is > 100 µM (inactive); in [17], > 100 µM (inactive); in test [14] it was > 100 µM (inactive); in test [18] it was 89.1 µM (inactive); in [19] it was > 100 µM (inactive); in test [20] it was > 100 µM (inactive).

Regarding `CCNC(=S)NNC(=O)c1nsc2ccccc12`, the GI50 in test [15] is > 100 µM (inactive); in test [2], > 100 µM (inactive); in test [16], 73.6 µM (inactive); in [3], 50.1 µM (inactive); in [4], > 100 µM (inactive); in test [5] it was 64.6 µM (inactive). The GI50 in test [6] was 67.1 µM (inactive); in test [7], > 100 µM (inactive); in test [8], 64.9 µM (inactive); in test [9], 85.7 µM (inactive); in test [10], 94.2 µM (inactive); in test [11] it was 31 µM (inactive). Further, the GI50 in [12] was > 100 µM (inactive); in test [13], 72.1 µM (inactive); in [17], 2.88 µM (inactive); in test [18], 63.8 µM (inactive); in test [19], > 100 µM (inactive); in [20], 59.4 µM (inactive).

For the compound `Nc1nc2ccc3ccccc3c2[nH]1`, the GI50 in test [1], in test [15], in test [2], in test [16], in [3] and in test [4] was > 10 µM (inactive) throughout. The GI50 in test [5], in test [6], in [7], in test [8], in test [10] and in [11] was > 10 µM (inactive) each time. Besides, the GI50 in test [12], in [13], in test [17], in test [14], in test [18] and in test [19] was > 10 µM (inactive) in each case. The GI50 in test [20] is > 10 µM (inactive).

Regarding `CS(C)(=O)=Nn1c(=O)n2n(c1=O)C1c3ccccc3C2c2ccccc21`, the GI50 in test [1], in test [15], in test [2], in test [16], in [3] and in [4] was > 100 µM (inactive) in each case. The GI50 in test [5] is 43.7 µM (inactive); in test [7] it was > 100 µM (inactive); in test [8], > 100 µM (inactive); in test [9] it was > 100 µM (inactive); in test [10], > 100 µM (inactive); in test [11], > 100 µM (inactive). Moreover, the GI50 in test [12], in test [13], in [17], in test [14], in [18] and in [19] was > 100 µM (inactive) throughout. Moreover, the GI50 in test [20] was > 100 µM (inactive).

As to `C1CSCCSCCSCCSC1`, the GI50 in [1], in test [15], in test [2], in test [16], in test [3] and in [4] was > 100 µM (inactive) throughout. Also, the GI50 in test [5], in [6], in test [7], in test [9], in test [10] and in [12] was > 100 µM (inactive) in each case. Further, the GI50 in [13], in [17], in test [14], in test [18] and in test [19] was > 100 µM (inactive) in each case.

With `O=C(NNC(=S)Nc1ccccc1)c1nsc2ccccc12`, the GI50 is 57 µM (inactive) in test [15]; 34.6 µM (inactive) in test [2]; 36.7 µM (inactive) in test [16]; 21.5 µM (inactive) in test [3]; 39.7 µM (inactive) in [4]; 24.6 µM (inactive) in [5]. The GI50 in [6] is 30.4 µM (inactive); in [7], 28.6 µM (inactive); in test [8] it was 35.7 µM (inactive); in [9], 20.4 µM (inactive); in test [10] it was 27.1 µM (inactive); in test [11], 0.36 µM (active). The GI50 in test [12] was 34.9 µM (inactive); in test [13], 50 µM (inactive); in [17], 19.6 µM (inactive); in test [18], 26.2 µM (inactive); in test [19] it was 31 µM (inactive); in test [20], 20.1 µM (inactive).

Regarding `CSC1SCC2C(=O)N(C)C(C(C)C)C(=O)OCC(NC(=O)c3cnc4ccccc4n3)C(=O)NC(C)C(=O)N(C)C1C(=O)N(C)C(C(C)C)C(=O)OCC(NC(=O)c1cnc3ccccc3n1)C(=O)NC(C)C(=O)N2C` (stereo unspecified), the GI50 in test [1], in [15], in test [16], in [3], in test [4] and in test [5] was 0.0075 µM (active) throughout. Moreover, the GI50 in [6] is 0.0075 µM (active); in test [7], 0.0075 µM (active); in [10], 0.0075 µM (active); in test [11], 0.00925 µM (active); in [12], 0.0075 µM (active); in test [13], 0.0075 µM (active). For the same compound, the GI50 in test [17] is 0.0178 µM (active); in [14], < 0.0147 µM (active); in [19], 0.0075 µM (active); in [20], 0.0193 µM (active).

In the case of `CN(C)C(=O)Oc1c(Br)cc(Br)cc1C(=O)OCc1ccccc1`, the GI50 is 20.9 µM (inactive) in [1]; 28.3 µM (inactive) in [15]; 40.2 µM (inactive) in test [2]; 28.2 µM (inactive) in [16]; 21.8 µM (inactive) in [3]; 18.3 µM (inactive) in test [4]. In addition, the GI50 in test [5] was 13.1 µM (inactive); in [6], 28.7 µM (inactive); in test [7], 32.4 µM (inactive); in test [8], 28.2 µM (inactive); in test [9], 16.8 µM (inactive); in [10], 21.6 µM (inactive). For the same compound, the GI50 is 19.3 µM (inactive) in [11]; 45.5 µM (inactive) in test [12]; 13.5 µM (inactive) in [13]; 27.7 µM (inactive) in [17]; 44.9 µM (inactive) in test [14]; 15.7 µM (inactive) in test [18]. Also, the results for the GI50 in test [19] and in [20] were 28.6 µM (inactive) and 21.4 µM (inactive), respectively.

Consider `O=C(CCCn1cnc([N+](=O)[O-])n1)NCCn1ccnc1[N+](=O)[O-]`, for which the GI50 in test [1], in test [15], in test [2], in test [16], in [3] and in test [4] was > 100 µM (inactive) throughout. Moreover, the GI50 was > 100 µM (inactive) in [5]; > 100 µM (inactive) in [6]; > 100 µM (inactive) in [8]; 61.7 µM (inactive) in test [9]; > 100 µM (inactive) in [10]; > 100 µM (inactive) in [11]. Besides, the GI50 in [13], in test [17], in [14], in test [18], in test [19] and in test [20] was > 100 µM (inactive) throughout.

With `COc1cc([C@@H]2c3cc4c(cc3[C@H](O)[C@H]3COC(=O)[C@H]23)OCO4)cc(OC)c1OC` [PODOFILOX], the GI50 in [1] was < 0.005 µM (active); in test [15], 0.0375 µM (active); in [2], < 0.005 µM (active); in [4] it was < 0.005 µM (active); in [6], < 0.005 µM (active); in test [7] it was < 0.005 µM (active). In addition, the GI50 was < 0.005 µM (active) in test [8]; 0.227 µM (active) in test [9]; < 0.005 µM (active) in test [11]; < 0.005 µM (active) in test [12]; < 0.005 µM (active) in test [13]; < 0.005 µM (active) in test [14]. For the same compound, the GI50 in test [18] and in test [20] was < 0.005 µM (active) each time.

The values are drawn from ChEMBL document CHEMBL1201862, “PubChem BioAssay data set” (2004).
